Key:
Assay in all cases: relative viability (nuclei count vs DMSO), 5 days (fraction); higher = more cells survive
AZD5582 + OSI-027 = compound: C[C@@H](C(=O)N[C@@H](C1CCCCC1)C(=O)N2CCC[C@H]2C(=O)N[C@@H]3[C@@H](CC4=CC=CC=C34)OCC#CC#CCO[C@@H]5CC6=CC=CC=C6[C@@H]5NC(=O)[C@@H]7CCCN7C(=O)[C@H](C8CCCCC8)NC(=O)[C@H](C)NC)NC [AZD5582] + COc1cccc2cc(-c3nc([C@H]4CC[C@H](C(=O)O)CC4)n4ncnc(N)c34)[nH]c12 [OSI-027] (partner 0.5 µM)
Outline: (§1)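 Lung cancer cell lines were seeded in 1536-well plates and dosed by pin tool the next day, with either a single drug or a fixed anchor-drug dose combined with five library-drug doses (not always all listed) spaced in √10 steps. Five days later, one step fixed the cells and stained their nuclei (final 0.05% Triton X-100, 1% formaldehyde, 1 ug/ml Hoechst), and nuclei were counted on 4× images. Relative viability is the nuclei count in treated wells divided by the count in vehicle wells, and each value is the median of duplicate plates.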

AZD5582 + Linsitinib = compound: C[C@@H](C(=O)N[C@@H](C1CCCCC1)C(=O)N2CCC[C@H]2C(=O)N[C@@H]3[C@@H](CC4=CC=CC=C34)OCC#CC#CCO[C@@H]5CC6=CC=CC=C6[C@@H]5NC(=O)[C@@H]7CCCN7C(=O)[C@H](C8CCCCC8)NC(=O)[C@H](C)NC)NC [AZD5582] + C[C@]1(O)C[C@@H](c2nc(-c3ccc4ccc(-c5ccccc5)nc4c3)c3c(N)nccn32)C1 [Linsitinib] (partner 1 µM)
Outline: as §1

AZD5582 + Phenformin = compound: C[C@@H](C(=O)N[C@@H](C1CCCCC1)C(=O)N2CCC[C@H]2C(=O)N[C@@H]3[C@@H](CC4=CC=CC=C34)OCC#CC#CCO[C@@H]5CC6=CC=CC=C6[C@@H]5NC(=O)[C@@H]7CCCN7C(=O)[C@H](C8CCCCC8)NC(=O)[C@H](C)NC)NC [AZD5582] + N=C(N)NC(=N)NCCc1ccccc1 [Phenformin] (partner 250 µM)
Outline: as §1

[1] = compound: Cn1nnc2c(C(N)=O)ncn2c1=O [Temozolomide] + CCNC(=O)c1noc(-c2cc(C(C)C)c(O)cc2O)c1-c1ccc(CN2CCOCC2)cc1 [Luminespib] (partner 0.01 µM)
Outline: as §1

Cell Line	relative viability (AZD5582 + OSI-027; first compound 0.001581 µM)	relative viability (AZD5582 + OSI-027; first compound 0.005 µM)	relative viability (AZD5582 + OSI-027; first compound 0.01581 µM)	relative viability (AZD5582 + OSI-027; first compound 0.05 µM)	relative viability (AZD5582 + Linsitinib; first compound 0.001581 µM)	relative viability (AZD5582 + Linsitinib; first compound 0.005 µM)	relative viability (AZD5582 + Linsitinib; first compound 0.01581 µM)	relative viability (AZD5582 + Linsitinib; first compound 0.05 µM)	relative viability (AZD5582 + Phenformin; first compound 0.001581 µM)	relative viability (AZD5582 + Phenformin; first compound 0.005 µM)	relative viability (AZD5582 + Phenformin; first compound 0.01581 µM)	relative viability (AZD5582 + Phenformin; first compound 0.05 µM)	relative viability ([1]; first compound 0.2 µM)	relative viability ([1]; first compound 0.6325 µM)	relative viability ([1]; first compound 2 µM)	relative viability ([1]; first compound 6.325 µM)	relative viability ([1]; first compound 20 µM)
201T	0.721	0.831	0.675	0.492	1.03	1.18	0.995	1.27	0.459	0.478	0.406	0.579	1.11	1.07	1.05	1.02	0.985
A549					0.545	0.768	0.444	0.726	0.172	0.127	0.152	0.278					
A-427	0.341	0.44	0.414	0.31	1.01	1.04	1.12	0.955	0.265	0.322	0.248	0.206	0.699	0.803	0.799	0.618	0.394
ABC-1	0.491	0.608	0.375	0.488	0.766	0.958	0.913	0.971	0.239	0.241	0.23	0.251	0.507	0.439	0.788	0.551	0.553
BEN	0.295	0.301	0.349	0.282	0.718	1.01	0.91	1.09	0.278	0.249	0.301	0.27	0.323	0.323	0.462	0.233	0.228
CAL-12T	0.239	0.339	0.281	0.323	0.665	0.656	0.775	0.544	0.354	0.27	0.408	0.222	0.27	0.518	0.862	0.115	0.723
COR-L23	0.799	0.721	0.768	0.756	0.937	0.957	0.913	1.16	0.42	0.418	0.385	0.521	0.639	0.669	0.737	0.696	0.612
COR-L 105	0.716	0.984	0.517	0.671	0.923	1.02	0.909	1.17	0.503	0.651	0.392	0.496	0.798	0.781	1.13	0.561	1.04
Calu-6					0.811		0.985	0.768									
ChaGo-K-1	0.497	0.596	0.57	0.545					0.445	0.54	0.4	0.513	0.679	0.625	0.785	0.557	0.556
EBC-1					0.828	0.939	0.883	1.03									
EKVX	0.667	0.852	0.687	0.778	0.872	1.12	0.875	1.14	0.217	0.23	0.196	0.228	0.364	0.873	0.888	0.829	0.714
EMC-BAC-2	0.295	0.341	0.323	0.273	0.768	0.871	0.831	0.564	0.405	0.508	0.418	0.335	1.11	1.18	1.21	1.12	1.23
EPLC-272H	0.121		0.274	0.0867	0.624	0.717	0.984	0.229	0.0525		0.233	0.0492	0.234	0.279	0.304	0.707	0.446
H3255	0.627	0.582	0.514	0.544	0.81	0.975	0.839	0.893	0.392	0.326	0.34	0.353		0.991	0.946	0.868	0.28
HARA	0.414	0.544	0.362	0.307	1.01	0.897	0.951	0.867	0.415	0.501	0.493	0.403	0.681	0.801	0.835	0.788	0.697
HCC-15	0.555	0.617	0.504	0.636	0.832	0.779	0.91	0.721	0.391	0.437	0.31	0.402	0.347	0.356	0.314	0.218	0.271
HCC-44	0.42	0.39	0.251	0.255	0.589	0.558	0.616	0.432	0.169	0.149	0.105	0.145	0.634	1.05	1.12	0.897	0.966
HCC-78	0.382	0.406	0.33	0.311	0.455	0.592	0.5	0.45	0.606	0.664	0.389	0.567					

Cell Line	relative viability (AZD5582 + OSI-027; first compound 0.001581 µM)	relative viability (AZD5582 + OSI-027; first compound 0.005 µM)	relative viability (AZD5582 + OSI-027; first compound 0.01581 µM)	relative viability (AZD5582 + OSI-027; first compound 0.05 µM)	relative viability (AZD5582 + Linsitinib; first compound 0.001581 µM)	relative viability (AZD5582 + Linsitinib; first compound 0.005 µM)	relative viability (AZD5582 + Linsitinib; first compound 0.01581 µM)	relative viability (AZD5582 + Linsitinib; first compound 0.05 µM)	relative viability (AZD5582 + Phenformin; first compound 0.001581 µM)	relative viability (AZD5582 + Phenformin; first compound 0.005 µM)	relative viability (AZD5582 + Phenformin; first compound 0.01581 µM)	relative viability (AZD5582 + Phenformin; first compound 0.05 µM)	relative viability ([1]; first compound 0.2 µM)	relative viability ([1]; first compound 0.6325 µM)	relative viability ([1]; first compound 2 µM)	relative viability ([1]; first compound 6.325 µM)	relative viability ([1]; first compound 20 µM)
HCC-366	0.654	0.995		0.934	0.7	0.754	0.622	0.822	0.575	0.564		0.708					
HCC-827	0.618	0.84	0.761	0.855	0.897	0.968	0.885	0.948	0.391	0.383	0.368	0.387	0.52	0.67	0.638	0.382	0.191
HOP-62	0.727	0.837	0.83	0.83	0.654	1	0.966	1.09	0.515	0.676	0.666	0.711	0.839	0.88	0.988	0.93	0.968
IA-LM					0.5	0.479	0.64	0.599									
LC-2-ad	0.823	1.05	0.725	0.957	0.916	0.938	0.911	0.97	0.607	0.64	0.338	0.585	0.928	1.05	1.09	0.899	0.988
LCLC-97TM1	0.4	0.567	0.496	0.382		0.16	0.191	0.148	0.402	0.467	0.2	0.409	0.835	0.7	0.749	0.806	0.75
LCLC-103H	0.465	0.486	0.375	0.37	1.06	1.33	1	1.19	0.328	0.316	0.272	0.269	1.09	1.04	1.07	1.01	0.872
LK-2	0.237	0.257	0.197	0.179		0.685	0.643	0.795	0.433	0.588	0.393	0.402	0.177	0.186	0.199	0.163	0.187
LOU-NH91	0.752	0.739	0.705	0.711	0.964	0.924	0.997	1.04	0.716	0.698	0.592	0.741	0.341	0.341	0.323	0.325	0.361
LU99A	0.259	0.295	0.243	0.287	0.575	0.622	0.525	0.752	0.785	0.927	0.819	0.997	0.265	0.312	0.288	0.23	0.225
LXF-289	0.71	0.907	0.495	0.792	0.924	0.936	0.959	0.998	0.484	0.488	0.409	0.486	0.712	0.782	0.722	0.729	0.659
NCI-H522	0.671	0.711	0.861	0.595					0.635	0.643	0.649	0.65	0.877	1.21	0.981	1.18	1.05
NCI-H1299					0.93	1.04	1.01	0.97									
NCI-H1623	0.422	0.407	0.457	0.432					0.565	0.61	0.565	0.46		0.488	0.416	0.361	0.519
NCI-H1648		0.266	0.228	0.301													
NCI-H1650	0.599	0.859	0.547	0.564					0.461	0.492	0.342	0.394	0.187	0.205	0.178	0.189	0.217
NCI-H2170	0.653	0.759	0.683	0.866					0.38	0.455	0.36	0.409		0.7	0.749	0.478	0.359
NCI-H2342	0.518	0.587	0.509	0.659					0.551	0.556	0.528	0.634	0.633	0.674	0.706	0.629	0.637
SW 900	0.412	0.559	0.518	0.571					0.502	0.632	0.414	0.401	0.163	0.175	0.169	0.131	0.149
